Entries after “also recorded” stand apart in the source; their conditions may differ.
Experiments:
[1] = system: subject having or suspected of having the polyQ tract expansion disease HD; experiment: Oral carbenoxolone in subjects having or suspected of having HD; assay type: in vivo, human; settings: about 100-700 mg/day
Description: The carbenoxolone is administered orally in tablet form, for example, as carbenoxolone disodium salt. The dosage is within the range of about 100-700 mg/day, for example at about 150 mg/day, about 300 mg/day, or about 600 mg/day. […] Such monitoring includes measuring cognitive and motor function in the subject, and/or determining whether a slowing or reversal of a personality change commonly associated with HD is observable. In some instances, the monitoring includes measuring the aggregation of Htt protein, the number or size of inclusion bodies, and/or brain tissue homeostasis (e.g. detection of improved survival of neuronal cells and/or reduction in astrocytes). […] After a period of time sufficient for a desired change, e.g. an amelioration in an HD symptom, to manifest, the subject is then monitored for such a change. For example, the subject, in some embodiments, is monitored for cognitive function, for example, within a time frame of about a week to about 6 months (e.g., about one month or about two months) after administration is commenced. […] For example, in some embodiments, the dose may be increased from about 150 mg/day to about 300 mg/day. In some embodiments, the subject is monitored again for symptoms after dose adjustment and, if the symptoms persist at the same severity level, the dose is increased further. […]

[2] = system: HD larvae (Elav^c155-GAL4; UAS-Htt-Q138/+); experiment: In vivo rescue: viability of HD larvae after 5-day drug dosing in liquid culture; parameters: species or system Drosophila; settings: larvae reared in liquid culture, 5-day dosing, compared to DMSO-treated controls
Description: In vivo Rescue studies: For small molecule in vivo rescue studies, Elav^c155; UAS-Htt-Q138-mRFP^1, UAS-mCD8-GFP/+1st instar larvae were collected en-masse and dispensed into liquid yeast media (10 larvae/well) containing therapeutic agents at three different concentrations as described in the results (n=8 replicas/concentration). Cultures were reared at 21° C. and larval viability was assessed after 5 days and the mean number of living Htt138Q larvae (i.e. GFP^+, Htt138QmRFP^+, and mobile) was tabulated, and expressed as a percentage of total larvae/well. For genetic rescue studies with lkb1, two Htt138Q strains were utilized: a strong expressing line, UAS-Htt138QmRFP^1 which is pharate lethal when crossed to Elav^c155, and a weaker expressing line, UAS-Htt138QmRFP^2 which survives to adulthood and is viable for a number of weeks. Using the strong line, pharate lethality at 25° C. was calculated after lkb1 (lkb1^4B1-11 and lkb1^4A4-2 alleles) was introduced into an Elav^c155, UAS-Htt/+background. Lkb1^4B1-11 is a premature truncation allele (Q98>Stop), and lkb1^4A4-2 is an EMS null allele (589 b.p. deletion removing 150 b.p. of the 5′ UTR, the start codon and the beginning of the open reading frame). For Top1 in vivo analysis, Elav^c155, Top^112 recombinants were generated and crossed to UAS-Htt138QmRFP^1.
To further examine the RNAi/small molecule screen hits, we assayed in vivo efficacy by testing their ability to rescue lethality in our Drosophila HD model. […] Specific inhibitors of Lkb1 were not available for in vivo testing.

Drosophila HD model = experiment: Early dosing of carbenoxolone in Drosophila HD model (lifespan, motor control); assay type: in vivo

SMILES: CC1(C)[C@@H](OC(=O)CCC(=O)O)CC[C@]2(C)[C@H]3C(=O)C=C4[C@@H]5C[C@@](C)(C(=O)O)CC[C@]5(C)CC[C@@]4(C)[C@]3(C)CC[C@@H]12 [Carbenoxolone]
- HD symptoms (cognition, motor function, personality change) [1]: improvement of at least some HD symptoms
- Viability of Htt-Q138 expressing larvae / rescue of Htt-Q138 lethality [2]: comparable activity
- Viability of Htt-Q138 expressing larvae / rescue of Htt-Q138 lethality ([2]; listed as carbenoxolone): rescue HD toxicity in vivo
- Motor control / chorea (defective motor coordination) (Drosophila HD model; Drosophila HD model): improves motor control; also recorded: improves chorea
- Drosophila HD model lifespan (Drosophila HD model; early dosing): extends Drosophila HD model lifespan
